Measurements reported in patent US20230145868A1, “UREA INHIBITORS OF MICRO-RNA” (Board of Regents, The University of Texas System, priority 2020, published 2023).

Key:
[1] = Microsomal stability assay, rat; type: in vitro ADME; settings: rat, liver microsomes, pH 7.4, rat liver microsomes; 1 μM test compound; unit printed in b356 only
Experimental: (§1) The liver microsomal incubation mixture was composed of liver microsomes (with a concentration of 0.5 mg microsomal protein/ml), the test compound (1 μM), MgCl2 (3 mM), EDTA (1 mM) in potassium phosphate buffer (100 mM, pH 7.4). Control substrates used were Midazolam and Ketanserin. The reaction was initiated with the addition of an NADPH regeneration solution (1.3 mM NADPH) and maintained at 37° C. with shaking. At five sequential time points ranging from 0 to 45 min, aliquots of the mixture (50 μL) were removed and quenched with acetonitrile (100 μL) containing an internal standard control (imipramine) Samples were analyzed after vortexing and centrifugation by liquid chromatography-mass spectrometry (LC-MS/MS). The in vitro t1/2 was then calculated and clearance followed literature.

[2] = Microsomal stability assay, human; type: in vitro ADME; settings: pH 7.4; human liver microsomes; 1 μM test compound; unit printed in b356 only
Experimental: as §1

[3] = tested on: miR-10b; assay: Luciferase reporter assay of miR-10b inhibition, MCF7 cells; type: cell-based; settings: Homo sapiens, MCF7, 48 h
Excerpt: (§2) To identify miR-10b inhibitors, a luciferase reporter system was designed with complementary oligonucleotides for miR-10b.This luciferase reporter would repress Renilla luciferase signal in the presence of a functional mature miR-10b. However, in the presence of a small molecule that can inhibit mature miR-10b expression or affect its downstream function, the luciferase expression is restored again.
(§3) The PsiCHECK™-2 luciferase reporter vector was acquired from Promega™, Complementary oligonucleotides for hsa-miR-10b were designed based on the mature miRNA sequence and obtained from Thermo Fisher Scientific. In the design of the microRNA target sequence, several base pairs were added to have two different restriction sites recognizable by the enzyme SgfI at one side, and PmeI on the other (present in the vector as well). In addition, the insert was designed with a restriction site for SacI enzyme in order to have an additional site to digest the vector when monitoring colonies for the presence/absence of the insert. The designed oligonucleotides were annealed as follows: Complementary strands were mixed at a 1:1 molar ratio in a micro centrifuge tube. The mixture was diluted to a final concentration of 1 pmol/μl with a buffer solution of 10 mM Tris, 1 mM EDTA, and 50 mM NaCl (pH 8.0). Mixes were incubated at 95° C. for 5 min, and then the heat was reduced gradually for 70 min, until reaching 4° C. The annealed oligonucleotides were digested along with the PsiCHECK™2 vector with SgfI and PmeI and ligated at the 3′-UTR (downstream) of the Renilla luciferase reporter gene in the PsiCHECK™-2vector. Insert sequences were further confirmed in two ways: enzymatic digestion and sequencing.
(§4) MCF7 cells were seeded 24 h prior to transfection in 96 well plates (2.0×10^4 cells/well). For testing the sensitivity of the assay, antagomiRs and pre-miRs against miR-10b were used at a final concentration of 100 nM. For testing small molecule miRNA inhibitors, the compounds of interest were added to a final concentration of 10 μM. The assay was done in MCF7 or MDA-MB-231 cells at approximately 60% confluence using Lipofectamine in Opti-Mem media with the final vector concentration of 250 ng/mL. All transfections were performed in triplicate for statistical analysis. The cells were incubated at 37° C. for 6 h, followed by replacement of the transfected media with fresh media. After 48 h incubation, the media was removed, and cells were lysed and assayed with a Dual Luciferase Assay Kit (Promega) using a Vi-Tech luminometer. The ratio of Renilla to firefly luciferase expression was calculated for each of the triplicates.

[4] = tested on: miR-10b; assay: Luciferase reporter assay of miR-10b inhibition, MDA-MB-231 cells; type: cell-based; settings: Homo sapiens, MDA-MB-231, 48 h
Excerpt: as §2, §3, §4

[5] = Microsomal stability assay, mouse; type: in vitro ADME; settings: mouse, liver microsomes, pH 7.4, mouse liver microsomes; 1 μM test compound; unit printed in b356 only
Experimental: as §1

CLint scaled at 1 μM [1]: 20.4 mL/min/kg
half-life at 1 μM [1]: 2.03 h
CLint scaled at 1 μM [2]: 8.8 mL/min/kg
half-life at 1 μM [2]: 3.28 h
CLint scaled at 1 μM [5]: 86.5 mL/min/kg
half-life at 1 μM [5]: 1.05 h
Structure (SMILES): Cc1ccc(F)c(NC(=O)Nc2ccc(-c3cccc4[nH]nc(N)c34)cc2)c1 [Example 10, 1-(4-(3-amino-1H-indazol-4-yl)phenyl)-3-(2-fluoro-5-methylphenyl)urea, reference compound]
fold induction at 10 µM ([3]; Table 3, MCF7, 10 μM compound, vs negative control (DMSO), mean of triplicate, read-out: n-fold increase in luciferase expression, Mean): 2.5
fold induction at 10 µM ([3]; Table 3, MCF7, 10 μM compound, vs negative control (DMSO), replicate #1, read-out: n-fold increase in luciferase expression, #1): 2.74
fold induction at 10 µM ([3]; Table 3, MCF7, 10 μM compound, vs negative control (DMSO), replicate #2, read-out: n-fold increase in luciferase expression, #2): 2.52
fold induction at 10 µM ([3]; Table 3, MCF7, 10 μM compound, vs negative control (DMSO), replicate #3, read-out: n-fold increase in luciferase expression, #3): 2.25
fold induction at 10 µM ([3]; Table 4, MCF7, 10 μM compound, vs negative control (DMSO), mean of triplicate, read-out: n-fold increase in luciferase expression, Mean): 1.97
fold induction at 10 µM ([3]; Table 4, MCF7, 10 μM compound, vs negative control (DMSO), replicate #1, read-out: n-fold increase in luciferase expression, #1): 2.56
fold induction at 10 µM ([3]; Table 4, MCF7, 10 μM compound, vs negative control (DMSO), replicate #2, read-out: n-fold increase in luciferase expression, #2): 1.58
fold induction at 10 µM ([3]; Table 4, MCF7, 10 μM compound, vs negative control (DMSO), replicate #3, read-out: n-fold increase in luciferase expression, #3): 1.78
fold induction at 10 µM ([3]; Table 6, MCF7, second biological replicant, 10 μM compound, mean of triplicate, read-out: n-fold increase in luciferase expression, Mean): 17.9
fold induction at 10 µM ([3]; Table 6, MCF7, second biological replicant, 10 μM compound, replicate #1, read-out: n-fold increase in luciferase expression, #1): 25.6
fold induction at 10 µM ([3]; Table 6, MCF7, second biological replicant, 10 μM compound, replicate #2, read-out: n-fold increase in luciferase expression, #2): 14.6
fold induction at 10 µM ([3]; Table 6, MCF7, second biological replicant, 10 μM compound, replicate #3, read-out: n-fold increase in luciferase expression, #3): 13.4
fold induction at 10 µM ([4]; Table 5, MDA-MB-231, 10 μM compound, vs negative control (DMSO), mean of triplicate, read-out: n-fold increase in luciferase expression, Mean): 1.87
fold induction at 10 µM ([4]; Table 5, MDA-MB-231, 10 μM compound, vs negative control (DMSO), replicate #1, read-out: n-fold increase in luciferase expression, #1): 1.51
fold induction at 10 µM ([4]; Table 5, MDA-MB-231, 10 μM compound, vs negative control (DMSO), replicate #2, read-out: n-fold increase in luciferase expression, #2): 1.14
fold induction at 10 µM ([4]; Table 5, MDA-MB-231, 10 μM compound, vs negative control (DMSO), replicate #3, read-out: n-fold increase in luciferase expression, #3): 2.95
fold induction at 10 µM ([4]; Table 7, MDA-MB-231, second biological replicant, 10 μM compound, mean of triplicate, read-out: n-fold increase in luciferase expression, Mean): 1.97
fold induction at 10 µM ([4]; Table 7, MDA-MB-231, second biological replicant, 10 μM compound, replicate #1, read-out: n-fold increase in luciferase expression, #1): 2.99
fold induction at 10 µM ([4]; Table 7, MDA-MB-231, second biological replicant, 10 μM compound, replicate #2, read-out: n-fold increase in luciferase expression, #2): 2.24
fold induction at 10 µM ([4]; Table 7, MDA-MB-231, second biological replicant, 10 μM compound, replicate #3, read-out: n-fold increase in luciferase expression, #3): 0.69
